Laboratory results from patent US9822114B2, “Tricyclic oxazolidinone antibiotic compounds” (Idorsia Pharmaceuticals Ltd, priority 2008, dated 2017).
≈ marks a conversion by molar mass, not a printed value.

Tested on: M. catarrhalis A894
Experiment: Minimal inhibitory concentration (MIC), microdilution method in cation-adjusted Mueller-Hinton Broth (CLSI M7-A7)
Assay type: cell-based
Conditions: strain A894; for MIC: Moraxella catarrhalis
Method: Minimal inhibitory concentrations (MICs; mg/1) were determined in cation-adjusted Mueller-Hinton Broth by a microdilution method following the description given in “Methods for Dilution Antimicrobial Susceptibility Tests for Bacteria that Grow Aerobically”, Approved standard, 7th ed., Clinical and Laboratory Standards Institute (CLSI) Document M7-A7, Wayne, Pa., USA, 2006.

O=C1CSc2ccc(N3C[C@H](CNCCC4CN5C(=O)CCc6ccc(F)c4c65)OC3=O)cc2N1 (mixture of isomers) [Example 22, (1RS)-9-fluoro-1-(2-{[(S)-2-oxo-3-(3-oxo-3,4-dihydro-2H-benzo[1,4]thiazin-6-yl)-oxazolidin-5-ylmethyl]-amino}-ethyl)-1,2,5,6-tetrahydro-pyrrolo[3,2,1-ij]quinolin-4-one]
MIC: ≤ 0.031 µg/mL

(1R,2R)-4-oxo-1-{3-[(R)-2-oxo-3-(3-oxo-3,4-dihydro-2H-benzo[1,4]thiazin-6-yl)-oxazolidin-5-yl]-propylamino}-1,2-dihydro-4H-pyrrolo[3,2,1-ij]quinoline-2-carboxylic acid methyl ester and (1S,2S)-4-oxo-1-{3-[(R)-2-oxo-3-(3-oxo-3,4-dihydro-2H-benzo[1,4]thiazin-6-yl)-oxazolidin-5-yl]-propylamino}-1,2-dihydro-4H-pyrrolo[3,2,1-ij]quinoline-2-carboxylic acid methyl ester [Example 161]
MIC for M. catarrhalis A894: 0.125 µg/mL

O=C1COc2ccc(N3C[C@@H](CCCN[C@H]4Cn5c(=O)cnc6ccc(F)c4c65)OC3=O)cc2N1 [Example 104, (R)-7-fluoro-6-{3-[(R)-2-oxo-3-(3-oxo-3,4-dihydro-2H-benzo[1,4]oxazin-6-yl)-oxazolidin-5-yl]-propylamino}-5,6-dihydro-pyrrolo[1,2,3-de]quinoxalin-3-one]
MIC: ≤ 0.031 µg/mL

(RS)-1-({[(R)-3-(4-ethoxy-phenyl)-2-oxo-oxazolidin-5-ylmethyl]-amino}-methyl)-9-fluoro-1,2-dihydro-pyrrolo[3,2,1-ij]quinolin-4-one [Example 36]
MIC for M. catarrhalis A894: 8 µg/mL

O=C1CSc2ccc(N3C[C@H](CCNCC4Cn5c(=O)cnc6cccc4c65)OC3=O)cc2N1 (mixture of isomers) [Example 56, (RS)-6-({2-[(S)-2-oxo-3-(3-oxo-3,4-dihydro-2H-benzo[1,4]thiazin-6-yl)-oxazolidin-5-yl]-ethylamino}-methyl)-5,6-dihydro-pyrrolo[1,2,3-de]quinoxalin-3-one]
MIC: ≤ 0.031 µg/mL

O=C1COc2ccc(N3C[C@H](CCNCC4Cn5c(=O)ccc6ncc(F)c4c65)OC3=O)cc2N1 (mixture of isomers) [Example 102, (RS)-3-fluoro-4-({2-[(S)-2-oxo-3-(3-oxo-3,4-dihydro-2H-benzo[1,4]oxazin-6-yl)-oxazolidin-5-yl]-ethylamino}-methyl)-4,5-dihydro-pyrrolo[3,2,1-de][1,5]naphthyridin-7-one]
MIC: ≤ 0.031 µg/mL

O=C1CSc2ccc(N3C[C@@H](CCNCC4Cn5c(=O)ccc6ccc(F)c4c65)OC3=O)cc2N1 (mixture of isomers) [Example 3, (1RS)-9-fluoro-1-({2-[(R)-2-oxo-3-(3-oxo-3,4-dihydro-2H-benzo[1,4]thiazin-6-yl)-oxazolidin-5-yl]-ethylamino}-methyl)-1,2-dihydro-pyrrolo[3,2,1-ij]quinolin-4-one]
MIC: ≤ 0.031 µg/mL

O=C1COc2ccc(N3C[C@H](CCCNC4Cn5c(=O)ccc6ccc(F)c4c65)OC3=O)nc2N1 (mixture of isomers) [Example 124, (RS)-9-fluoro-1-{3-[(S)-2-oxo-3-(3-oxo-3,4-dihydro-2H-pyrido[3,2-b][1,4]oxazin-6-yl)-oxazolidin-5-yl]-propylamino}-1,2-dihydro-pyrrolo[3,2,1-ij]quinolin-4-one]
MIC: ≤ 0.031 µg/mL

O=C1CSc2ccc(N3C[C@H](CCCN[C@H]4Cn5c(=O)ccc6cccc4c65)OC3=O)cc2N1 [Example 133, (R)-1-{3-[(S)-2-oxo-3-(3-oxo-3,4-dihydro-2H-benzo[1,4]thiazin-6-yl)-oxazolidin-5-yl]-propylamino}-1,2-dihydro-pyrrolo[3,2,1-ij]quinolin-4-one]
MIC: ≤ 0.031 µg/mL

O=C1CSc2ccc(N3C[C@H](CNCC4Cn5c(=O)ccc6cccc4c65)OC3=O)cc2N1 (mixture of isomers) [Example 81, (RS)-1-({[(S)-2-oxo-3-(3-oxo-3,4-dihydro-2H-benzo[1,4]thiazin-6-yl)-oxazolidin-5-ylmethyl]-amino}-methyl)-1,2-dihydro-pyrrolo[3,2,1-ij]quinolin-4-one]
MIC: ≤ 0.031 µg/mL

O=C1COc2ccc(N3C[C@@H](CCCN[C@@H]4Cn5c(=O)ccc6ccc(F)c4c65)OC3=O)nc2N1 [Example 190, (S)-9-fluoro-1-{3-[(R)-2-oxo-3-(3-oxo-3,4-dihydro-2H-pyrido[3,2-b][1,4]oxazin-6-yl)-oxazolidin-5-yl]-propylamino}-1,2-dihydro-pyrrolo[3,2,1-ij]quinolin-4-one]
MIC: ≤ 0.031 µg/mL

O=C1CSc2ccc(N3C[C@H](CCNCC4Cn5c(=O)ccc6cccc4c65)OC3=O)cc2N1 (mixture of isomers) [Example 61, (RS)-1-({2-[(S)-2-oxo-3-(3-oxo-3,4-dihydro-2H-benzo[1,4]thiazin-6-yl)-oxazolidin-5-yl]-ethylamino}-methyl)-1,2-dihydro-pyrrolo[3,2,1-U]quinolin-4-one]
MIC for M. catarrhalis A894: ≦0.031 mg/l

O=C1CSc2ccc(N3C[C@H](CCNCC4Cn5c(=O)ccc6cccc4c65)OC3=O)nc2N1 (mixture of isomers) [Example 176, (RS)-1-({2-[(S)-2-oxo-3-(3-oxo-3,4-dihydro-2H-pyrido[3,2-b][1,4]thiazin-6-yl)-oxazolidin-5-yl]-ethylamino}-methyl)-1,2-dihydro-pyrrolo[3,2,1-ij]quinolin-4-one]
MIC: ≤ 0.031 µg/mL

O=C1CSc2ccc(N3C[C@@H](CCNCC4Cn5c(=O)ccc6nccc4c65)OC3=O)cc2N1 (mixture of isomers) [Example 34, (RS)-4-({2-[(R)-2-oxo-3-(3-oxo-3,4-dihydro-2H-benzo[1,4]thiazin-6-yl)-oxazolidin-5-yl]-ethylamino}-methyl)-4,5-dihydro-pyrrolo[3,2,1-de][1,5]naphthyridin-7-one]
MIC: ≤ 0.031 µg/mL

COc1nc2ccc(F)c3c2n(c1=O)C[C@@H]3NCCC[C@@H]1CN(c2ccc3c(c2)NC(=O)CO3)C(=O)O1 [Example 111, (R)-7-fluoro-2-methoxy-6-{3-[(R)-2-oxo-3-(3-oxo-3,4-dihydro-2H-benzo[1,4]oxazin-6-yl)-oxazolidin-5-yl]-propylamino}-5,6-dihydro-pyrrolo[1,2,3-de]quinoxalin-3-one]
MIC: 0.125 µg/mL (≈ 0.245 µM)

O=C1CSc2ccc(N3C[C@H](CCNCC4CN5C(=O)CCc6ccc(F)c4c65)OC3=O)cc2N1 (mixture of isomers) [Example 29, (1RS)-9-fluoro-1-({2-[(S)-2-oxo-3-(3-oxo-3,4-dihydro-2H-benzo[1,4]thiazin-6-yl)-oxazolidin-5-yl]-ethylamino}-methyl)-1,2,5,6-tetrahydro-pyrrolo[3,2,1-ij]quinolin-4-one]
MIC: ≤ 0.031 µg/mL

O=C1CSc2ccc(N3C[C@H](CNCC4Cn5c(=O)ccc6cccc4c65)OC3=O)nc2N1 (mixture of isomers) [Example 175, (RS)-1-({[(S)-2-oxo-3-(3-oxo-3,4-dihydro-2H-pyrido[3,2-b][1,4]thiazin-6-yl)-oxazolidin-5-ylmethyl]-amino}-methyl)-1,2-dihydro-pyrrolo[3,2,1-ij]quinolin-4-one]
MIC: ≤ 0.031 µg/mL

O=C1CSc2ccc(N3C[C@@H](CCCNC4Cn5c(=O)cnc6ccc(F)c4c65)OC3=O)nc2N1 (mixture of isomers) [Example 199, (RS)-7-fluoro-6-{3-[(R)-2-oxo-3-(3-oxo-3,4-dihydro-2H-pyrido[3,2-b][1,4]thiazin-6-yl)-oxazolidin-5-yl]-propylamino}-5,6-dihydro-pyrrolo[1,2,3-de]quinoxalin-3-one]
MIC: ≤ 0.031 µg/mL

O=C1CSc2ccc(N3C[C@H](CCCN[C@@H]4Cn5c(=O)ccc6ccc(F)c4c65)OC3=O)cc2N1 [Example 130, (S)-9-fluoro-1-{3-[(S)-2-oxo-3-(3-oxo-3,4-dihydro-2H-benzo[1,4]thiazin-6-yl)-oxazolidin-5-yl]-propylamino}-1,2-dihydro-pyrrolo[3,2,1-ij]quinolin-4-one]
MIC: ≤ 0.031 µg/mL

O=C1COc2ccc(N3C[C@@H](CCCN[C@H]4Cn5c(=O)ccc6ccc(F)c4c65)OC3=O)nc2N1 [Example 194, (R)-9-fluoro-1-{3-[(R)-2-oxo-3-(3-oxo-3,4-dihydro-2H-pyrido[3,2-b][1,4]oxazin-6-yl)-oxazolidin-5-yl]-propylamino}-1,2-dihydro-pyrrolo[3,2,1-ij]quinolin-4-one]
MIC: ≤ 0.031 µg/mL

O=C1CSc2ccc(N3C[C@H](CCNC[C@@H]4Cn5c(=O)ccc6ccc(F)c4c65)OC3=O)cc2N1 [Example 50, (R)-9-fluoro-1-({2-[(S)-2-oxo-3-(3-oxo-3,4-dihydro-2H-benzo[1,4]thiazin-6-yl)-oxazolidin-5-yl]-ethylamino}-methyl)-1,2-dihydro-pyrrolo[3,2,1-ij]quinolin-4-one]
MIC: ≤ 0.031 µg/mL

(1R,2R)-4-oxo-1-{3-[(S)-2-oxo-3-(3-oxo-3,4-dihydro-2H-benzo[1,4]thiazin-6-yl)-oxazolidin-5-yl]-propylamino}-1,2-dihydro-4H-pyrrolo[3,2,1-ij]quinoline-2-carboxylic acid methyl ester and (1S,2S)-4-oxo-1-{3-[(S)-2-oxo-3-(3-oxo-3,4-dihydro-2H-benzo[1,4]thiazin-6-yl)-oxazolidin-5-yl]-propylamino}-1,2-dihydro-4H-pyrrolo[3,2,1-ij]quinoline-2-carboxylic acid methyl ester [Example 162]
MIC for M. catarrhalis A894: 0.25 µg/mL

(1R,2S)-2-methyl-1-{3-[(R)-2-oxo-3-(3-oxo-3,4-dihydro-2H-pyrido[3,2-b][1,4]thiazin-6-yl)-oxazolidin-5-yl]-propylamino}-1,2-dihydro-pyrrolo[3,2,1-ij]quinolin-4-one and (1S,2R)-2-methyl-1-{3-[(R)-2-oxo-3-(3-oxo-3,4-dihydro-2H-pyrido[3,2-b][1,4]thiazin-6-yl)-oxazolidin-5-yl]-propylamino}-1,2-dihydro-pyrrolo[3,2,1-ij]quinolin-4-one [Example 168]
MIC for M. catarrhalis A894: ≦0.031 mg/l

O=C1COc2ccc(N3C[C@@H](CCNCC4Cn5c(=O)ccc6ccc(F)c4c65)OC3=O)cc2N1 (mixture of isomers) [Example 2, (1RS)-9-fluoro-1-({2-[(R)-2-oxo-3-(3-oxo-3,4-dihydro-2H-benzo[1,4]oxazin-6-yl)-oxazolidin-5-yl]-ethylamino}-methyl)-1,2-dihydro-pyrrolo[3,2,1-ij]quinolin-4-one]
MIC: ≤ 0.031 µg/mL
